Experimental findings from PMC6120666 (The EMBO Journal, 2018) are described below.

Assay in all cases: Drug affinity chromatography with c-ponatinib and LC-MS/MS (ponatinib interactome)
What all share (assay type): binding

Assay [1] concerns the target T1, proteins of U2OS cell lysate (Homo sapiens, UniProt O00303).
T1 construct: Proteins enriched by c-ponatinib from U2OS cell lysate; endogenous in cells; host or cells: U2OS cell lysate
To be noted: EIF3F, Eukaryotic translation initiation factor 3 subunit F. The method in brief: (§1)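 Proteins were identified by nano-UPLC–MS/MS after elution with formic acid and trypsin digestion. They were captured from U2OS lysate (2 mg protein per pulldown, NP-40 buffer) on amine-coupled NHS beads during a 2 h incubation at 4 °C.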

The target of assay [2] is T2, proteins of U2OS cell lysate (Homo sapiens, UniProt O00487).
T2 construct: Proteins enriched by c-ponatinib from U2OS cell lysate; endogenous in cells; host or cells: U2OS cell lysate
To be noted: PSMD14, 26S proteasome non-ATPase regulatory subunit 14. The method in brief: as §1

Assay [3] addresses T3, proteins of U2OS cell lysate (Homo sapiens, UniProt P02545).
T3 construct: Proteins enriched by c-ponatinib from U2OS cell lysate; endogenous in cells; host or cells: U2OS cell lysate
The settings on record: LMNA, Prelamin-A/C;Lamin-A/C. The essentials: as §1

For assay [4], the target named is T4, proteins of U2OS cell lysate (Homo sapiens, UniProt P0DMV9).
T4 construct: Proteins enriched by c-ponatinib from U2OS cell lysate; endogenous in cells; host or cells: U2OS cell lysate
To be noted: HSPA1B, Heat shock 70 kDa protein 1B. The method in brief:
as §1

In assay [5] the target is T5, proteins of U2OS cell lysate (Homo sapiens, UniProt P11441).
T5 construct: Proteins enriched by c-ponatinib from U2OS cell lysate; endogenous in cells; host or cells: U2OS cell lysate
T5 sequence (P11441 whole entry): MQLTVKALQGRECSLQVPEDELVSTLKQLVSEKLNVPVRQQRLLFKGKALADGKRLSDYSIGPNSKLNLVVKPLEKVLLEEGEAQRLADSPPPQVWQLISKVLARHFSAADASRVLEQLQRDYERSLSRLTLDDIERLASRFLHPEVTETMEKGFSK
To be noted: UBL4A, Ubiquitin-like protein 4A. The essentials:
as §1

The target in assay [6] is T6, proteins of U2OS cell lysate (Homo sapiens, UniProt P12931).
T6 construct: Proteins enriched by c-ponatinib from U2OS cell lysate; endogenous in cells; host or cells: U2OS cell lysate
T6 sequence (P12931 whole entry): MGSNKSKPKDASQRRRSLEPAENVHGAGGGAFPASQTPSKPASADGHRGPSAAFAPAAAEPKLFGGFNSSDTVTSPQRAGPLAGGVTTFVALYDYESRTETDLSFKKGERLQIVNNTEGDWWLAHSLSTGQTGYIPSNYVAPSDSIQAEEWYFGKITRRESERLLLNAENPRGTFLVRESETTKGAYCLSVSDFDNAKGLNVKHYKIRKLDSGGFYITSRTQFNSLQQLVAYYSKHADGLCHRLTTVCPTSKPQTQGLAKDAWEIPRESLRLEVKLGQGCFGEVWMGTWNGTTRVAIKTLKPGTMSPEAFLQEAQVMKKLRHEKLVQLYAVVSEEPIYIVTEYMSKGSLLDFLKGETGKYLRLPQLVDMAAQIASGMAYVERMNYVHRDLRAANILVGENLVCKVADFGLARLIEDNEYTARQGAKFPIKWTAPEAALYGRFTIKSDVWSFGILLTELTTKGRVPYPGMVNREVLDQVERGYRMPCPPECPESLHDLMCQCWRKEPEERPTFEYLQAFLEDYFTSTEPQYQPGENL
The settings on record: SRC, Proto-oncogene tyrosine-protein kinase Src. The method in brief: as §1

Assay [7] has as its target T7, proteins of U2OS cell lysate (Homo sapiens, UniProt P46060).
T7 construct: Proteins enriched by c-ponatinib from U2OS cell lysate; endogenous in cells; host or cells: U2OS cell lysate
To be noted: RANGAP1, Ran GTPase-activating protein 1. The essentials: as §1

Assay [8] deals with T8, proteins of U2OS cell lysate (Homo sapiens, UniProt P50990).
T8 construct: Proteins enriched by c-ponatinib from U2OS cell lysate; endogenous in cells; host or cells: U2OS cell lysate
T8 sequence (P50990 whole entry): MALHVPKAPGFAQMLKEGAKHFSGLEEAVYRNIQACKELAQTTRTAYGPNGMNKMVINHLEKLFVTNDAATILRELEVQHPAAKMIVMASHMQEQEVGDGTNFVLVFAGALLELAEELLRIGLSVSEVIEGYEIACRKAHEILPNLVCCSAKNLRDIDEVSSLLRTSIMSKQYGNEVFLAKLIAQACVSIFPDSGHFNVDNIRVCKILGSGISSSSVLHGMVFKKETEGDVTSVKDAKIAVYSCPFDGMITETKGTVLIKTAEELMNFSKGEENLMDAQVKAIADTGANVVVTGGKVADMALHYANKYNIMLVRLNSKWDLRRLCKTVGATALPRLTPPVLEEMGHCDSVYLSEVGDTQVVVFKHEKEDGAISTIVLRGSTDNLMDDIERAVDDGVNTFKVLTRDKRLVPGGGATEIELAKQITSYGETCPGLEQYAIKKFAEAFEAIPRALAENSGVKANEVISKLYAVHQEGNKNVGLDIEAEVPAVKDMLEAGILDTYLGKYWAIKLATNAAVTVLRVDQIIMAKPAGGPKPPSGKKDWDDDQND
To be noted: CCT8, T-complex protein 1 subunit theta. The essentials: as §1

Assay [9] concerns the target T9, proteins of U2OS cell lysate (Homo sapiens, UniProt P55072).
T9 construct: Proteins enriched by c-ponatinib from U2OS cell lysate; endogenous in cells; host or cells: U2OS cell lysate
The settings on record: VCP, Transitional endoplasmic reticulum ATPase. The method in brief:
as §1

For assay [10], the target named is T10, proteins of U2OS cell lysate (Homo sapiens, UniProt P62333).
T10 construct: Proteins enriched by c-ponatinib from U2OS cell lysate; endogenous in cells; host or cells: U2OS cell lysate
T10 sequence (P62333 whole entry): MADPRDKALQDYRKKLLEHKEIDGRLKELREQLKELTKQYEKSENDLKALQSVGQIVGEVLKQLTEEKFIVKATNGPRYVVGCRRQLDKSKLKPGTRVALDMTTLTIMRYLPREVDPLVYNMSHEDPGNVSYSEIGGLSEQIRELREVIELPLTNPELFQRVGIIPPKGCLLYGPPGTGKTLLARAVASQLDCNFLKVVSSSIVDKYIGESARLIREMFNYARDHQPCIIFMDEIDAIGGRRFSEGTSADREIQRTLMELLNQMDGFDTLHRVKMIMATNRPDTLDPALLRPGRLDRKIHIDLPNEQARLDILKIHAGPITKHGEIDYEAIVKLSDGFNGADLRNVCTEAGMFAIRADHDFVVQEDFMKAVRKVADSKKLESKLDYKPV
The settings on record: PSMC6, 26S protease regulatory subunit 10B. The method in brief: as §1

The target in assay [11] is T11, proteins of U2OS cell lysate (Homo sapiens, UniProt P68371).
T11 construct: Proteins enriched by c-ponatinib from U2OS cell lysate; endogenous in cells; host or cells: U2OS cell lysate
T11 sequence (P68371 whole entry): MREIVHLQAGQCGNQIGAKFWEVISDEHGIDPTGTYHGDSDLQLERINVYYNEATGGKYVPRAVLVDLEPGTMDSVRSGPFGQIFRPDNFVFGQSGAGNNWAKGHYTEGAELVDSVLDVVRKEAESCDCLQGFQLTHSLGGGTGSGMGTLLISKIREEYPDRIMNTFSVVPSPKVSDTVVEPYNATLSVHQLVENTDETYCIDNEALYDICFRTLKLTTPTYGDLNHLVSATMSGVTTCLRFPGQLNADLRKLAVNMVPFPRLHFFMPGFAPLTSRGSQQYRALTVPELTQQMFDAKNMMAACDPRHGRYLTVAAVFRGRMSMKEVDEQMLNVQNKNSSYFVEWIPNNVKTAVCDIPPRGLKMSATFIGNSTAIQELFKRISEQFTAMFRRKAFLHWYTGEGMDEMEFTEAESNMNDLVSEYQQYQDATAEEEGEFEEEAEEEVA
To be noted: TUBB4B;TUBB8, Tubulin beta-4B chain. The essentials:
as §1

Assay [12] concerns the target T12, proteins of U2OS cell lysate (Homo sapiens, UniProt Q00536).
T12 construct: Proteins enriched by c-ponatinib from U2OS cell lysate; endogenous in cells; host or cells: U2OS cell lysate
The settings on record: CDK16, Cyclin-dependent kinase 16. The method in brief:
as §1

In assay [13] the target is T13, proteins of U2OS cell lysate (Homo sapiens, UniProt Q09666).
T13 construct: Proteins enriched by c-ponatinib from U2OS cell lysate; endogenous in cells; host or cells: U2OS cell lysate
To be noted: AHNAK, Neuroblast differentiation-associated protein AHNAK. The essentials:
as §1

The target in assay [14] is T14, proteins of U2OS cell lysate (Homo sapiens, UniProt Q14315).
T14 construct: Proteins enriched by c-ponatinib from U2OS cell lysate; endogenous in cells; host or cells: U2OS cell lysate
To be noted: FLNC, Filamin-C. The essentials: as §1

The target of assay [15] is T15, proteins of U2OS cell lysate (Homo sapiens, UniProt Q14974).
T15 construct: Proteins enriched by c-ponatinib from U2OS cell lysate; endogenous in cells; host or cells: U2OS cell lysate
The settings on record: KPNB1, Importin subunit beta-1. The essentials: as §1

Assay [16] has as its target T16, proteins of U2OS cell lysate (Homo sapiens, UniProt Q92522).
T16 construct: Proteins enriched by c-ponatinib from U2OS cell lysate; endogenous in cells; host or cells: U2OS cell lysate
The settings on record: H1FX, Histone H1x. The essentials: as §1

Assay [17] concerns the target T17, proteins of U2OS cell lysate (Homo sapiens, UniProt Q9UHD8).
T17 construct: Proteins enriched by c-ponatinib from U2OS cell lysate; endogenous in cells; host or cells: U2OS cell lysate
To be noted: SEPT9, Septin-9. The method in brief:
as §1

In assay [18] the target is T18, proteins of U2OS cell lysate (Homo sapiens, UniProt P46782).
T18 construct: Proteins enriched by c-ponatinib from U2OS cell lysate; endogenous in cells; host or cells: U2OS cell lysate
The settings on record: captured protein RPS5, Rank 160. The essentials: as §1

In assay [19] the target is T19, proteins of U2OS cell lysate (Homo sapiens, UniProt Q9UNM6).
T19 construct: Proteins enriched by c-ponatinib from U2OS cell lysate; endogenous in cells; host or cells: U2OS cell lysate
T19 sequence (Q9UNM6 whole entry): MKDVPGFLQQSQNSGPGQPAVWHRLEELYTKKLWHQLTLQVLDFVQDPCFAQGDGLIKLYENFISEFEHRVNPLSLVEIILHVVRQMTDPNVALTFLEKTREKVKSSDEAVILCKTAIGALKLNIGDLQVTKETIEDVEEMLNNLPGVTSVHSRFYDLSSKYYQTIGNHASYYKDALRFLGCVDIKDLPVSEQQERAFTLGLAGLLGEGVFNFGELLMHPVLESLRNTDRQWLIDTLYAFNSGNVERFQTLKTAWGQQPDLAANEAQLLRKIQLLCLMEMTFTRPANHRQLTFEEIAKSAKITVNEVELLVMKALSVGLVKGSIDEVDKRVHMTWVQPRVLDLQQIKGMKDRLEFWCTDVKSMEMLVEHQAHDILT
To be noted: captured protein PSMD13, Rank 204. The essentials: as §1

T17 sequence (Q9UHD8 whole entry): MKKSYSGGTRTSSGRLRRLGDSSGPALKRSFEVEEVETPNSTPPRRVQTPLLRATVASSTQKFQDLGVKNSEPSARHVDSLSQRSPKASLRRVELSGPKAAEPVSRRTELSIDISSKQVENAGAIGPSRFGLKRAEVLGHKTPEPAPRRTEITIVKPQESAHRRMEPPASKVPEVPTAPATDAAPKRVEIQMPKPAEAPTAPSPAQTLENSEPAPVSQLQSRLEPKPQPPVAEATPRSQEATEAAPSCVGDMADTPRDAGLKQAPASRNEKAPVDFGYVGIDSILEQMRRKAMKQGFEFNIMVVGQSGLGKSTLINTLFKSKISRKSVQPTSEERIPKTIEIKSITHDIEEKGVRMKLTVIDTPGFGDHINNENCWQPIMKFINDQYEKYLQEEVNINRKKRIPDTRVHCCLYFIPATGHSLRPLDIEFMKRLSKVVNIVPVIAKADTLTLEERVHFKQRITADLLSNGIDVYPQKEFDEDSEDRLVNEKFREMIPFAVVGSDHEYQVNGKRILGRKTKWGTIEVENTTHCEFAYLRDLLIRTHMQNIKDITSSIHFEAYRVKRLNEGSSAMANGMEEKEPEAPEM
T3 sequence (P02545 whole entry): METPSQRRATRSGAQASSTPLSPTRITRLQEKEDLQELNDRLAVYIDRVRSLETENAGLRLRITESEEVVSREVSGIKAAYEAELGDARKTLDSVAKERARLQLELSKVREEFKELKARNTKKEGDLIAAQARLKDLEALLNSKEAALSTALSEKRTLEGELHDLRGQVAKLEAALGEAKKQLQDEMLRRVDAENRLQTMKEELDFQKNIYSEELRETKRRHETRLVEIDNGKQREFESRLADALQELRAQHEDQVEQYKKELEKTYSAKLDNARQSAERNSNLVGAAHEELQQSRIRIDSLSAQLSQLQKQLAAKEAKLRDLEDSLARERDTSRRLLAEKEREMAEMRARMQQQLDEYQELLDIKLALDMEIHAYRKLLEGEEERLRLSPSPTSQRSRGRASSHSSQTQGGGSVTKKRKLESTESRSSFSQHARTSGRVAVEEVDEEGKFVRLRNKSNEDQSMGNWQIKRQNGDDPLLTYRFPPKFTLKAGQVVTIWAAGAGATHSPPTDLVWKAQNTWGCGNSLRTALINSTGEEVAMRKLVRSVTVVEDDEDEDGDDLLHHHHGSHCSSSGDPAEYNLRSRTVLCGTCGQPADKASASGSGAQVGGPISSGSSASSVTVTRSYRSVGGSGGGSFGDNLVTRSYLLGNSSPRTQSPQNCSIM
T16 sequence (Q92522 whole entry): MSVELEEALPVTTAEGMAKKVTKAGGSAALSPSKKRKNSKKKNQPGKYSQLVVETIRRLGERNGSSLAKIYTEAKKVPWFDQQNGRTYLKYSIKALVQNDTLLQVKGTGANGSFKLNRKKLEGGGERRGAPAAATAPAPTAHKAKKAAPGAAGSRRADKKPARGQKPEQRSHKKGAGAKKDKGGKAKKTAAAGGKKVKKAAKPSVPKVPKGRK
T1 sequence (O00303 whole entry): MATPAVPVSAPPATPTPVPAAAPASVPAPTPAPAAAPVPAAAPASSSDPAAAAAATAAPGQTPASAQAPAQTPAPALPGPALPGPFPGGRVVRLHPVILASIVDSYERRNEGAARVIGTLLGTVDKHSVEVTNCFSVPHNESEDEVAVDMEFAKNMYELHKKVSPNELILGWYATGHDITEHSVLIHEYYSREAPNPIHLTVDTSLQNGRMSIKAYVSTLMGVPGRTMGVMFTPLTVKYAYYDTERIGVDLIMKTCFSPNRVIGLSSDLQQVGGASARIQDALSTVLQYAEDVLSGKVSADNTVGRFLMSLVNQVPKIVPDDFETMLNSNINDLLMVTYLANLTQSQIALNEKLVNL
T12 sequence (Q00536 whole entry): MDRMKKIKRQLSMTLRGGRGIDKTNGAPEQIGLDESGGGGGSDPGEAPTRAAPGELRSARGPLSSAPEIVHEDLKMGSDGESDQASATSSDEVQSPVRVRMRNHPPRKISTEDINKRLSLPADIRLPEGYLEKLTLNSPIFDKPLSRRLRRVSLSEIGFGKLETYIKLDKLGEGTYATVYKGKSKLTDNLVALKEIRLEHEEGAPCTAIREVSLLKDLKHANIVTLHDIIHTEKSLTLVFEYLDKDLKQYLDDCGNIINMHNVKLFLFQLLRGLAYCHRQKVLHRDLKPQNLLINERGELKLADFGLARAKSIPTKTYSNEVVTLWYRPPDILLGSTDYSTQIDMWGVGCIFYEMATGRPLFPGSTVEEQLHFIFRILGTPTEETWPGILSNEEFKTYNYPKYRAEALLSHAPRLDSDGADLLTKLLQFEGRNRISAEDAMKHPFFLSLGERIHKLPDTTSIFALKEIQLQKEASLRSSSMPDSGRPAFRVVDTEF

As to `Cc1ccc(C(=O)Nc2ccc(CN3CCN(C)CC3)c(C(F)(F)F)c2)cc1C#Cc1cnc2cccnn12` [PON], the “Average LFQ PON_WT” value in assay [1] was found to be 23.4858; in assay [2], 20.7842; in assay [3], 23.7594; in [4], 24.1054; in assay [5], 20.3097; in [6] it was 24.0256. Further, the “Average LFQ PON_WT” value in [7] was 21.315; in assay [8] it was 24.1007; in assay [9], 23.9947; in assay [10], 21.4756; in assay [11] it was 26.1041; in assay [12], 24.4833. The “Average LFQ PON_WT” value in assay [13] was 26.25; in [14], 26.6007; in assay [15] it was 23.6067; in assay [16], 20.0616; in [17], 23.3795.

Regarding `Cc1ccc(C(=O)Nc2ccc(CN3CCN(CCCN)CC3)c(C(F)(F)F)c2)cc1C#Cc1cnc2cccnn12` [c-ponatinib, reference compound], the “Average LFQ intensity” value in assay [18] is given as 22.4465; in assay [19], 21.7826.
